In DBAASP:
≈ marks a conversion by molar mass, not a printed value. Where “and” joins values, the source holds several entries; their conditions need not be identical. Equal values may be shown once.

Legend:
Assay in all cases: ≥ marks a high value that may be exact or a test limit, other limits are often not marked, values filed in µg/mL are converted to µM
Bacillus megaterium Bm11 = tested on: Bacillus megaterium Bm11
Escherichia coli D21 = tested on: Escherichia coli D21
Escherichia coli ML-35 = tested on: Escherichia coli ML-35
[1] = tested on: Salmonella enterica subsp. enterica serovar Typhimurium ATCC 14028
[2] = tested on: Serratia marcescens ATCC 8100
[3] = tested on: Staphylococcus epidermidis ATCC 12228
Staphylococcus aureus = tested on: Staphylococcus aureus
Streptococcus sanguinis = tested on: Streptococcus sanguinis
[4] = tested on: Bacillus subtilis ATCC 6633
[5] = tested on: Candida albicans CGMCC 2.2411
[6] = tested on: Enterococcus faecium CMCC 1.2136
[7] = tested on: Escherichia coli CVCC 1515
[8] = tested on: Escherichia coli CVCC 195
[9] = tested on: Escherichia coli O157:H7 CICC 21530
[10] = tested on: Listeria ivanovii ATCC 19119
[11] = tested on: Pseudomonas aeruginosa CICC 10419
[12] = tested on: Pseudomonas aeruginosa CICC 21630
[13] = tested on: Salmonella enterica subsp. enterica serovar Choleraesuis CVCC 503
[14] = tested on: Salmonella enterica subsp. enterica serovar Enteritidis CVCC 3377
[15] = tested on: Salmonella enterica subsp. enterica serovar Pullorum CVCC 1789
[16] = tested on: Salmonella enterica subsp. enterica serovar Pullorum CVCC 1802
[17] = tested on: Staphylococcus aureus ATCC 25923
[18] = tested on: Staphylococcus aureus ATCC 43300
[19] = tested on: Streptococcus suis CVCC 606
[20] = tested on: Candida albicans JLC 30364
[21] = tested on: Bacillus subtilis ATCC 6051
[22] = tested on: Candida albicans ATCC 18804
[23] = tested on: Enterococcus faecalis ATCC 19433
[24] = tested on: Escherichia coli ATCC 11775
[25] = tested on: Listeria monocytogenes ATCC 7644
[26] = tested on: Mycobacterium tuberculosis H37Rv
[27] = tested on: Mycobacterium tuberculosis
[28] = tested on: Pseudomonas aeruginosa ATCC 10145
[29] = tested on: Pseudomonas aeruginosa DFU3
[30] = tested on: Salmonella enterica subsp. enterica serovar Typhi ATCC 6399
Shigella flexneri = tested on: Shigella flexneri
[31] = tested on: Staphylococcus aureus ATCC 29213
[32] = tested on: Staphylococcus aureus IAM 1098
[33] = tested on: Staphylococcus epidermidis SAM 0020
Streptococcus agalactiae = tested on: Streptococcus agalactiae
[34] = tested on: Escherichia coli ATCC 25922
[35] = tested on: Listeria monocytogenes EGD
[36] = tested on: Pseudomonas aeruginosa ATCC 27853

## NC(N)=NCCC[C@H](NC(=O)[C@@H](N)CCCN=C(N)N)C(=O)N[C@@H](CCCN=C(N)N)C(=O)N1CCC[C@H]1C(=O)N[C@@H](CCCN=C(N)N)C(=O)N1CCC[C@H]1C(=O)N1CCC[C@H]1C(=O)N[C@@H](Cc1ccc(O)cc1)C(=O)N[C@@H](Cc1c[nH]c2ccccc12)C(=O)N1CCC[C@H]1C(=O)N[C@@H](CCCN=C(N)N)C(=O)N1CCC[C@H]1C(=O)N[C@@H](CCCN=C(N)N)C(=O)N1CCC[C@H]1C(=O)N1CCC[C@H]1C(=O)O [RRRPRPPYWPRPRPP]
Bacillus megaterium Bm11
  MIC: 16 µM (≈ 31.7 µg/mL)
Escherichia coli D21
  MIC: 2 µM (≈ 3.97 µg/mL)
Escherichia coli ML-35
  MIC: 4 µM (≈ 7.94 µg/mL)
[1]
  MIC: 16 µM (≈ 31.7 µg/mL)
[2]
  MIC: 8 µM (≈ 15.9 µg/mL)
[3]
  MIC: > 64 µM

## NC(=O)[C@H](Cc1ccccc1)NC(=O)[C@H](Cc1ccccc1)NC(=O)[C@@H](N)Cc1ccccc1 [FFF]
Staphylococcus aureus
  MIC: > 1090 µM
Streptococcus sanguinis
  MIC: ≥ 1090 µM

## CC(C)[C@H](NC(=O)CNC(=O)[C@H](CC(N)=O)NC(=O)[C@H](CCCN=C(N)N)NC(=O)[C@H](Cc1ccc(O)cc1)NC(=O)[C@@H](NC(=O)[C@@H](NC(=O)[C@H](CC(N)=O)NC(=O)[C@H](Cc1c[nH]c2ccccc12)NC(=O)[C@H](Cc1ccccc1)NC(=O)CN)C(C)C)C(C)C)C(=O)N[C@@H](CCCN=C(N)N)C(=O)N[C@H](C(=O)N[C@@H](Cc1cnc[nH]1)C(=O)N[C@@H](CCCN=C(N)N)C(=O)N[C@@H](CCCN=C(N)N)C(=O)N[C@@H](CC(N)=O)C(=O)O)C(C)C [GFWNVVYRNGVRVHRRN]
[4]
  MIC: 30.1 µM (≈ 64 µg/mL)
[5]
  MIC: ≥ 60.1 µM
[6]
  MIC: 30.1 µM (≈ 64 µg/mL)
[7]
  MIC: ≥ 60.1 µM
[8]
  MIC: 30.1 µM (≈ 64 µg/mL)
[9]
  MIC: 30.1 µM (≈ 64 µg/mL)
[10]
  MIC: ≥ 60.1 µM
[11]
  MIC: ≥ 60.1 µM
[12]
  MIC: ≥ 60.1 µM
[13]
  MIC: ≥ 60.1 µM
[14]
  MIC: 1.88 µM (≈ 4 µg/mL)
[15]
  MIC: ≥ 60.1 µM
[16]
  MIC: ≥ 60.1 µM
[1]
  MIC: 60.1 µM (≈ 128 µg/mL)
[17]
  MIC: 0.939 µM (≈ 2 µg/mL)
[18]
  MIC: > 60.1 µM
[19]
  MIC: ≥ 60.1 µM

## CC(=O)N[C@@H](Cc1ccccc1)C(=O)N[C@@H](CCCCN)C(=O)N[C@@H](CCCCN)C(=O)N[C@@H](CC(C)C)C(=O)N[C@@H](CCCCN)C(=O)N[C@@H](CCCCN)C(=O)N[C@@H](CC(C)C)C(=O)N[C@@H](Cc1ccccc1)C(=O)N[C@@H](CO)C(=O)N[C@@H](CCCCN)C(=O)N[C@@H](CC(C)C)C(=O)N[C@@H](Cc1c[nH]c2ccccc12)C(=O)N[C@@H](CC(N)=O)C(=O)N[C@@H](Cc1c[nH]c2ccccc12)C(=O)N[C@@H](CCCCN)C(N)=O [FKKLKKLFSKLWNWK]
[4]
  MIC: 1.6 µM and 4 µM
[20]
  MIC: ≥ 32 µM

## CC[C@H](C)[C@H](NC(=O)[C@H](CC(C)C)NC(=O)[C@H](CCCCN)NC(=O)[C@H](CC(C)C)NC(=O)[C@H](C)NC(=O)CNC(=O)[C@H](CCCCN)NC(=O)[C@H](C)NC(=O)[C@H](CC(C)C)NC(=O)[C@H](C)NC(=O)CNC(=O)[C@H](Cc1c[nH]c2ccccc12)NC(=O)[C@@H](N)Cc1ccccc1)C(=O)N1CCC[C@H]1C(=O)N[C@@H](CO)C(=O)N[C@@H](CC(C)C)C(=O)N[C@@H](Cc1ccccc1)C(=O)N[C@@H](CO)C(=O)N[C@@H](CO)C(=O)N[C@@H](Cc1ccccc1)C(=O)N[C@@H](CO)C(=O)N[C@@H](CCCCN)C(=O)N[C@@H](CCCCN)C(=O)N[C@@H](CC(=O)O)C(=O)O [FWGALAKGALKLIPSLFSSFSKKD]
[21]
  MIC: 4.8 µM (≈ 12.5 µg/mL)
[4]
  MIC: ≥ 37.5 µM
[22]
  MIC: 19.1 µM (≈ 49.9 µg/mL)
[23]
  MIC: 2.4 µM (≈ 6.27 µg/mL)
[24]
  MIC: 19.1 µM (≈ 49.9 µg/mL)
[25]
  MIC: 18.8 µM (≈ 49.1 µg/mL)
[26]
  MIC: 22.1 µM (≈ 57.7 µg/mL)
[27]
  MIC: ≥ 33.1 µM
[28]
  MIC: ≥ 38.2 µM
[29]
  MIC: 18.8 µM and 25 µM
[30]
  MIC: ≥ 37.5 µM
Shigella flexneri
  MIC: ≥ 37.5 µM
[31]
  MIC: 6.2 µM and > 3.1 µM
[32]
  MIC: 2.4 µM (≈ 6.27 µg/mL)
[33]
  MIC: 4.8 µM (≈ 12.5 µg/mL)
Streptococcus agalactiae
  MIC: 18.8 µM (≈ 49.1 µg/mL)

## CC[C@H](C)[C@H](NC(=O)[C@H](C)NC(=O)[C@H](CCCN=C(N)N)NC(=O)[C@H](CCCCN)NC(=O)[C@H](C)NC(=O)[C@H](CCC(N)=O)NC(=O)[C@H](CC(C)C)NC(=O)[C@H](CCCCN)NC(=O)[C@H](Cc1ccccc1)NC(=O)[C@H](CC(C)C)NC(=O)[C@H](CCCCN)NC(=O)[C@H](Cc1ccccc1)NC(=O)[C@@H](NC(=O)[C@@H](NC(=O)[C@H](CCCCN)NC(=O)[C@H](C)NC(=O)[C@H](C)NC(=O)[C@@H](N)CCCCN)[C@@H](C)O)C(C)C)C(=O)N[C@@H](CCC(=O)O)C(=O)N[C@@H](C)C(N)=O [KAAKTVFKLFKLQAKRAIEA]
[34]
  MIC: 128 µM (≈ 289 µg/mL)
[35]
  MIC: ≥ 128 µM
[36]
  MIC: 128 µM (≈ 289 µg/mL)
[17]
  MIC: 128 µM (≈ 289 µg/mL)
